One experiment addresses T1, Histamine H1 receptor (Cavia porcellus, UniProt P31389).
T1 construct: from tissue
Put plainly: Histamine H1 receptor binding study. To be noted: test concentration typically 10 μM; read-out: H1 Inh. [%]. The source says: Table 5 summarises the inhibitory values on the above receptors:

The test system of another experiment is AMPA receptor. Put plainly: Inhibition of the cainate-induced signal at the AMPA receptor, electrophysiology on neuronal cells (Patch-Clamp-Method). Type of experiment: cell-based. As to conditions: test concentration of 100 μM. How it is done: The tests were carried out at a test concentration of 100 μM.
(In general: In patch-clamp work, channel activity is measured electrically.)

For the next experiment, the system named is Sigma receptor. As to the kind of experiment: Sigma receptor binding study. To be noted: test concentration typically 10 μM. Here is the method: (§1) The tests were typically carried out at a test concentration of 10 μM.
Experiment [1] relates to "Na+ channel site 2"-binding site. Put plainly: Binding to the Na+ channel site 2 binding site ([3H]-BTX). To be noted: test concentration typically 10 μM. Here is the method: as §1

T1 sequence (P31389 whole entry): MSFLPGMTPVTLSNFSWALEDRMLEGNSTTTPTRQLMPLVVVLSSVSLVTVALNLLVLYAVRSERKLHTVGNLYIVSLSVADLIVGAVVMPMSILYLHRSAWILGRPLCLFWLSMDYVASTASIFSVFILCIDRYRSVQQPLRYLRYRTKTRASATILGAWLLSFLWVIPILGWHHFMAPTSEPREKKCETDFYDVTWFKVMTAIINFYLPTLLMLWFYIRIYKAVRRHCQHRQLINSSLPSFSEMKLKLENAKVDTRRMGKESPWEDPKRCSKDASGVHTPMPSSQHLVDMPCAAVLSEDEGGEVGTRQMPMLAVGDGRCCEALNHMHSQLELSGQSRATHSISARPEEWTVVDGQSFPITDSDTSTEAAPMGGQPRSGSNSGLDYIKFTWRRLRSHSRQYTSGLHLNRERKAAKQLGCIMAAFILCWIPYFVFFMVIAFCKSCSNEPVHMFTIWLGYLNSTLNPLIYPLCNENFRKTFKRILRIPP

With `CN(C)CCOc1ccccc1-c1nc(-c2cccc(Br)c2)no1` [Example 48, 5-{2-[2-(N,N-Dimethylamino)-ethyl]oxy-phenyl}-3-(3-bromophenyl)-1,2,4-oxadiazole], the inhibition at 10 µM on Histamine H1 receptor was determined as 78%. Also, the “AMPA Inh. [%] (inhibiting the cainate-induced signal at the AMPA receptor)” value in the experiment on AMPA receptor was determined as 85%. Moreover, the “Sigma Inh. [%]” value with Sigma receptor is recorded as 74%. Further, the “Na+-channel Inh. [%] ([3H]-BTX)” value in experiment [1] was 85%.
For the compound `CN1CCN(CCOc2ccccc2-c2nc(-c3ccccc3)no2)CC1` [Example 5, 5-{2-[2-(4-methylpiperazin-1-yl)ethyl]oxy-phenyl}-3-phenyl-1,2,4-oxadiazole], the inhibition at 10 µM on Histamine H1 receptor was 74%. In addition, in the experiment with AMPA receptor, the “AMPA Inh. [%] (inhibiting the cainate-induced signal at the AMPA receptor)” value was 84%. Further, the “Sigma Inh. [%]” value in the experiment on Sigma receptor came out at 90%. Besides, in experiment [1], the “Na+-channel Inh. [%] ([3H]-BTX)” value is recorded as 78%.
`CN(C)CCOc1ccccc1-c1noc(-c2ccccc2)n1` [Example 3, 3-{2-[2-(N,N-Dimethylamino)ethyl]oxy-phenyl}-5-phenyl-1,2,4-oxadiazole]: on Histamine H1 receptor, the inhibition at 10 µM turned out to be 98%. Further, the “AMPA Inh. [%] (inhibiting the cainate-induced signal at the AMPA receptor)” value in the experiment with AMPA receptor is on record as 96%. In addition, the “Sigma Inh. [%]” value in the experiment on Sigma receptor was 62%. Also, in experiment [1], the “Na+-channel Inh. [%] ([3H]-BTX)” value is 91%.
For the compound `c1ccc(-c2noc(-c3ccccc3OCCN3CCOCC3)n2)cc1` [Example 4, 5-{2-[2-(Morpholino)ethyl]oxy-phenyl}-3-phenyl-1,2,4-oxadiazole], the inhibition at 10 µM at Histamine H1 receptor is 44%. The “AMPA Inh. [%] (inhibiting the cainate-induced signal at the AMPA receptor)” value with AMPA receptor came out at 71%. For the same compound, the “Sigma Inh. [%]” value with Sigma receptor is recorded as 41%. Besides, the “Na+-channel Inh. [%] ([3H]-BTX)” value in experiment [1] came out at 79%.
On to `CN(C)CCOc1ccccc1-c1nc(-c2ccsc2)no1` [Example 54, 5-{2-[2-(N,N-Dimethylamino)-ethyl]oxy-phenyl}-3-(3-thienyl)-1,2,4-oxadiazole], for which, at Histamine H1 receptor, the inhibition at 10 µM was 95%. In the experiment on Sigma receptor, the “Sigma Inh. [%]” value is on record as 68%. In experiment [1], the “Na+-channel Inh. [%] ([3H]-BTX)” value is 62%.
Consider `CN(C)CCOc1ccccc1-c1nc(-c2ccc(O)cc2)no1` [Example 8, 5-{2-[2-(N,N-Dimethylamino)ethyl]oxy-phenyl}-3-(4-hydroxyphenyl)-1,2,4-oxadiazole], for which the inhibition at 10 µM on Histamine H1 receptor turned out to be 94%. For the same compound, the “AMPA Inh. [%] (inhibiting the cainate-induced signal at the AMPA receptor)” value with AMPA receptor is 97%. Moreover, the “Sigma Inh. [%]” value with Sigma receptor is 59%. Besides, the “Na+-channel Inh. [%] ([3H]-BTX)” value in experiment [1] worked out at 87%.
For `COc1ccc(-c2noc(-c3ccccc3OCCN(C)C)n2)cc1` [Example 19, 5-{2-[2-(N,N-Dimethylamino)-ethyl]oxy-phenyl}-3-(4-methoxy-phenyl)-1,2,4-oxadiazole], the inhibition at 10 µM at Histamine H1 receptor was determined as 95%. For the same compound, the “AMPA Inh. [%] (inhibiting the cainate-induced signal at the AMPA receptor)” value in the experiment on AMPA receptor was 86%. Also, in the experiment on Sigma receptor, the “Sigma Inh. [%]” value is on record as 74%. The “Na+-channel Inh. [%] ([3H]-BTX)” value in experiment [1] came to 83%.
With `CCNCCOc1ccccc1-c1nc(-c2ccccc2)no1` [Example 23, 5-{2-[2-(N-ethylamino)ethyl]-oxy-phenyl}-3-phenyl-1,2,4-oxadiazole], at Histamine H1 receptor, the inhibition at 10 µM amounted to 63%. Further, in the experiment on AMPA receptor, the “AMPA Inh. [%] (inhibiting the cainate-induced signal at the AMPA receptor)” value is 93%. Besides, in the experiment with Sigma receptor, the “Sigma Inh. [%]” value is on record as 79%. For the same compound, the “Na+-channel Inh. [%] ([3H]-BTX)” value in experiment [1] came out at 99%.
As to `CN(C)CCOc1ccccc1-c1nc(C2CC2)no1` [Example 55, 5-{2-[2-(N,N-Dimethylamino)-ethyl]oxy-phenyl}-3-cyclopropyl-1,2,4-oxadiazole], the “AMPA Inh. [%] (inhibiting the cainate-induced signal at the AMPA receptor)” value with AMPA receptor amounted to 81%.
In the case of `CN(C)CCOc1ccccc1-c1nc(-c2ccccc2Br)no1` [Example 64, 5-{2-[2-(N,N-Dimethylamino)-ethyl]oxy-phenyl}-3-(2-bromo-phenyl)-1,2,4-oxadiazole], the inhibition at 10 µM on Histamine H1 receptor stood at 88%. Besides, the “AMPA Inh. [%] (inhibiting the cainate-induced signal at the AMPA receptor)” value in the experiment on AMPA receptor is 65%. For the same compound, in the experiment with Sigma receptor, the “Sigma Inh. [%]” value came to 76%. Besides, in experiment [1], the “Na+-channel Inh. [%] ([3H]-BTX)” value amounted to 99%.
On to `Cc1ccccc1-c1noc(-c2ccccc2OCCN(C)C)n1` [Example 33], for which the inhibition at 10 µM on Histamine H1 receptor was 87%. Also, the “AMPA Inh. [%] (inhibiting the cainate-induced signal at the AMPA receptor)” value in the experiment on AMPA receptor was 87%. Besides, in the experiment with Sigma receptor, the “Sigma Inh. [%]” value is listed as 77%. Besides, in experiment [1], the “Na+-channel Inh. [%] ([3H]-BTX)” value was 84%.
Turning to `c1ccc(-c2noc(-c3ccccc3OCCN3CCCCC3)n2)cc1` [Example 14, 5-{2-[2-(N-Piperidinyl)ethyl]oxy-phenyl}-3-phenyl-1,2,4-oxadiazole], the inhibition at 10 µM at Histamine H1 receptor turned out to be 87%. For the same compound, in the experiment on AMPA receptor, the “AMPA Inh. [%] (inhibiting the cainate-induced signal at the AMPA receptor)” value is reported as 96%. Moreover, the “Sigma Inh. [%]” value with Sigma receptor was determined as 93%. Moreover, in experiment [1], the “Na+-channel Inh. [%] ([3H]-BTX)” value was 100%.
For `CN(C)CCOc1ccccc1-c1nc(-c2cccs2)no1` [Example 42, 5-{2-[2-(N,N-Dimethylamino)-ethyl]oxy-phenyl}-3-(2-thienyl)-1,2,4-oxadiazole], in that order: 94%, 79%, 57% and 89%.
With `CCN(CC)CCOc1ccccc1-c1nc(-c2ccccc2)no1` [Example 12, 5-{2-[2-(N,N-Diethylamino)ethyl]-oxy-phenyl}-3-phenyl-1,2,4-oxadiazole], the inhibition at 10 µM at Histamine H1 receptor came out at 87%. In addition, in the experiment with AMPA receptor, the “AMPA Inh. [%] (inhibiting the cainate-induced signal at the AMPA receptor)” value was found to be 85%. The “Sigma Inh. [%]” value in the experiment with Sigma receptor came out at 68%. Moreover, in experiment [1], the “Na+-channel Inh. [%] ([3H]-BTX)” value is listed as 90%.
In the case of `c1ccc(CNCCOc2ccccc2-c2nc(-c3ccccc3)no2)cc1` [Example 20, 5-{2-[2-(N-benzylamino)ethyl]-oxy-phenyl}-3-phenyl-1,2,4-oxadiazole], on Histamine H1 receptor, the inhibition at 10 µM came to 19%. For the same compound, in the experiment on AMPA receptor, the “AMPA Inh. [%] (inhibiting the cainate-induced signal at the AMPA receptor)” value amounted to 90%. Further, the “Sigma Inh. [%]” value with Sigma receptor came to 84%. The “Na+-channel Inh. [%] ([3H]-BTX)” value in experiment [1] is recorded as 100%.
`Cc1cccc(-c2noc(-c3ccccc3OCCN(C)C)n2)c1` [Example 37, 5-{2-[2-(N,N-Dimethylamino)-ethyl]oxy-phenyl}-3-(3-methyl-phenyl)-1,2,4-oxadiazole]: the inhibition at 10 µM on Histamine H1 receptor turned out to be 93%. Further, in the experiment on AMPA receptor, the “AMPA Inh. [%] (inhibiting the cainate-induced signal at the AMPA receptor)” value came to 93%. The “Sigma Inh. [%]” value in the experiment with Sigma receptor is listed as 82%. Besides, the “Na+-channel Inh. [%] ([3H]-BTX)” value in experiment [1] is recorded as 93%.
As for `CN1CCN(c2ccccc2-c2nc(-c3ccccc3)no2)CC1` [Example 40, 5-[2-(4-methylpiperazin-1yl)-phenyl]-3-phenyl-1,2,4-oxadiazole], on Histamine H1 receptor, the inhibition at 10 µM came to 99%. Moreover, the “AMPA Inh. [%] (inhibiting the cainate-induced signal at the AMPA receptor)” value in the experiment with AMPA receptor was 37%. The “Sigma Inh. [%]” value in the experiment with Sigma receptor turned out to be 76%. Also, the “Na+-channel Inh. [%] ([3H]-BTX)” value in experiment [1] was 88%.
In the same order, the values of `CN(C)CCOc1ccccc1-c1nc(Cc2ccccc2)no1` [Example 31, 5-{2-[2-(N,N-Dimethylamino)-ethyl]oxy-phenyl}-3-benzyl-1,2,4-oxadiazole] are 94%, 23%, 77% and 82%.
As for `c1ccc(-c2noc(-c3ccccc3OCCN3CCCC3)n2)cc1` [Example 13, 5-{2-[2-(N-Pyrrolidinyl)ethyl]oxy-phenyl}-3-phenyl-1,2,4-oxadiazole], the inhibition at 10 µM at Histamine H1 receptor amounted to 91%. The “AMPA Inh. [%] (inhibiting the cainate-induced signal at the AMPA receptor)” value with AMPA receptor came out at 96%. For the same compound, the “Sigma Inh. [%]” value with Sigma receptor is 83%. Also, the “Na+-channel Inh. [%] ([3H]-BTX)” value in experiment [1] was determined as 95%.
`CN(C)CCOc1ccccc1-c1nc(-c2ccccc2Cl)no1` [Example 27, 5-{2-[2-(N,N-Dimethylamino)-ethyl]oxy-phenyl}-3-(2-chloro-phenyl)-1,2,4-oxadiazole]: the inhibition at 10 µM on Histamine H1 receptor was determined as 90%. Besides, the “AMPA Inh. [%] (inhibiting the cainate-induced signal at the AMPA receptor)” value in the experiment with AMPA receptor is 91%. In the experiment with Sigma receptor, the “Sigma Inh. [%]” value is recorded as 84%. In experiment [1], the “Na+-channel Inh. [%] ([3H]-BTX)” value was 79%.
For `CN(C)CCOc1ccccc1-c1nc(-c2ccc(N)cc2)no1` [Example 47, 5-{2-[2-(N,N-Dimethylamino)-ethyl]oxy-phenyl}-3-(4-amino-phenyl)-1,2,4-oxadiazole], in that order: 82%, 59%, 56% and 74%.
On to `CC(C)NCCOc1ccccc1-c1nc(-c2ccccc2)no1` [Example 21, 5-{2-[2-(N-Isopropylamino)ethyl]-oxy-phenyl}-3-phenyl-1,2,4-oxadiazole], for which the inhibition at 10 µM on Histamine H1 receptor stood at 75%. Moreover, the “AMPA Inh. [%] (inhibiting the cainate-induced signal at the AMPA receptor)” value in the experiment with AMPA receptor is 98%. In the experiment with Sigma receptor, the “Sigma Inh. [%]” value came to 76%. Moreover, in experiment [1], the “Na+-channel Inh. [%] ([3H]-BTX)” value is given as 100%.
Take `CN(C)CCOc1ccccc1-c1nc(-c2ccco2)no1` [Example 57, 5-{2-[2-(N,N-Dimethylamino)-ethyl]oxy-phenyl}-3-(2-furyl)-1,2,4-oxadiazole]: the inhibition at 10 µM at Histamine H1 receptor came out at 90%. For the same compound, the “AMPA Inh. [%] (inhibiting the cainate-induced signal at the AMPA receptor)” value in the experiment with AMPA receptor is 51%. Also, in the experiment on Sigma receptor, the “Sigma Inh. [%]” value was 49%. Further, the “Na+-channel Inh. [%] ([3H]-BTX)” value in experiment [1] was 54%.
For `NCCOc1ccccc1-c1nc(-c2ccccc2)no1` [Example 24, 5-[2-(2-aminoethyl)oxy-phenyl]-3-phenyl-1,2,4-oxadiazole], the inhibition at 10 µM on Histamine H1 receptor amounted to 27%. Moreover, in the experiment with AMPA receptor, the “AMPA Inh. [%] (inhibiting the cainate-induced signal at the AMPA receptor)” value was 96%. Moreover, the “Sigma Inh. [%]” value with Sigma receptor was found to be 52%. The “Na+-channel Inh. [%] ([3H]-BTX)” value in experiment [1] stood at 89%.
In the same order, the values of `CNCCOc1ccccc1-c1nc(-c2ccccc2)no1` [Example 22, 5-{2-[2-(N-methylamino)ethyl]-oxy-phenyl}-3-phenyl-1,2,4-oxadiazole] are 64%, 94%, 78% and 94%.

The values are drawn from US6277872A, “Oxadiazoles, processes for their preparation and their use as medicaments” (Boehringer Ingelheim KG, priority 1996, dated 2001).
